Consider 20 compounds from PubChem BioAssay AID248 (DTP/NCI, 2004).

The test system of this assay is L1210 leukemia ip in BDF1 mice, survival T/C. Put plainly: NCI In Vivo Anticancer Drug Screen. Data for tumor model L1210 Leukemia (intraperitoneal) in B6D2F1 (BDF1) mice. The note with it: endpoint: mean survival time, higher = longer survival. In a few lines:
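Each compound was tested against a transplantable tumor grown in mice. The endpoint was survival, with treated animals benchmarked against vehicle controls as a simple ratio.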

Where [1] appears, read: dose: 100.0 mg/kg/injection, schedule: Q01DX009 (ip), vehicle: Klucel (hydroxypropylcellulose) (HPC).
Setting [2] is: dose: 100.0 mg/kg/injection, schedule: Q04DX003 (ip), vehicle: Klucel (hydroxypropylcellulose) (HPC).
Setting [3] is: dose: 200.0 mg/kg/injection, schedule: Q01DX009 (ip), vehicle: Klucel (hydroxypropylcellulose) (HPC).
Where [4] appears, read: dose: 200.0 mg/kg/injection, schedule: Q04DX003 (ip), vehicle: Klucel (hydroxypropylcellulose) (HPC).
[5] abbreviates: dose: 400.0 mg/kg/injection, schedule: Q01DX009 (ip), vehicle: Klucel (hydroxypropylcellulose) (HPC).
Setting [6] is: dose: 400.0 mg/kg/injection, schedule: Q04DX003 (ip), vehicle: Klucel (hydroxypropylcellulose) (HPC).
[7] abbreviates: dose: 100.0 mg/kg/injection, schedule: Q01DX009 (ip), vehicle: saline.
[8] abbreviates: dose: 200.0 mg/kg/injection, schedule: Q01DX009 (ip), vehicle: saline.
Setting [9] is: dose: 100.0 mg/kg/injection, schedule: Q01DX001 (ip), vehicle: saline.
Where [10] appears, read: dose: 200.0 mg/kg/injection, schedule: Q01DX001 (ip), vehicle: saline.
Setting [11] is: dose: 400.0 mg/kg/injection, schedule: Q01DX001 (ip), vehicle: saline.

Each structure is given as a SMILES string. Where “and” joins values, the source holds several entries; their conditions need not be identical. Identical values can stand only once. Inconclusive results and toxic doses are left out.

For `Cc1ccccc1-c1nc2ncnc(N)c2[nH]1`, the T/C by setting is: (dose: 31.8 mg/kg/injection, schedule: Q01DX001 (ip), vehicle: Klucel (hydroxypropylcellulose) (HPC)) 104 % of control; (dose: 62.5 mg/kg/injection, schedule: Q01DX001 (ip), vehicle: Klucel (hydroxypropylcellulose) (HPC)) 109 % of control; (dose: 125.0 mg/kg/injection, schedule: Q01DX001 (ip), vehicle: Klucel (hydroxypropylcellulose) (HPC)) 101 % of control.

For the compound `Cc1ccc(NC(=S)NC(Cc2ccccc2)c2ccccc2)c(C)c1` (stereo unspecified), the T/C was 106 % of control under setting [1]; 98 % of control under setting [2]; 87 % of control under setting [3]; 96 % of control under setting [4]; 101 % of control under setting [5]; 98 % of control under setting [6].

Take `C/C(CCCCCCCCC#N)=N/Nc1ccc([N+](=O)[O-])cc1[N+](=O)[O-]`: the T/C under setting [2] was 93 % of control, the T/C under setting [4] is 93 % of control and the T/C under setting [6] is 98 % of control.

As to `CC(NC(=O)C(N)CSC(c1ccccc1)(c1ccccc1)c1ccccc1)C(=O)O` (stereo unspecified), the T/C runs as follows: (dose: 25.0 mg/kg/injection, schedule: Q01DX009 (ip), vehicle: other) 121 % of control; (dose: 25.0 mg/kg/injection, schedule: Q01DX009 (ip), vehicle: saline) 114 % of control; (dose: 50.0 mg/kg/injection, schedule: Q01DX009 (ip), vehicle: saline) 122 % of control; under setting [7], 152 % of control; (dose: 200.0 mg/kg/injection, schedule: Q01DX009 (ip), vehicle: other) 88 % of control; under setting [8], 111 % of control.

Turning to `Cc1cc2cc3cccc[n+]3cc2c2ccccc12`, the T/C reads like this: (dose: 2.0 mg/kg/injection, schedule: Q01DX Z (ip), vehicle: carboxymethylcellulose (CMC)) 101 % of control; (dose: 4.0 mg/kg/injection, schedule: Q01DX Z (ip), vehicle: carboxymethylcellulose (CMC)) 110 % of control; (dose: 8.0 mg/kg/injection, schedule: Q01DX Z (ip), vehicle: carboxymethylcellulose (CMC)) 113 % of control; (dose: 16.0 mg/kg/injection, schedule: Q01DX Z (ip), vehicle: carboxymethylcellulose (CMC)) 113 % of control.

With `CCOC(=O)CNC(=O)Nc1ccc(OC)cc1`, the T/C (dose: 100.0 mg/kg/injection, schedule: Q01DX009 (ip), vehicle: saline with Tween-80) is 100 % of control; the T/C (dose: 200.0 mg/kg/injection, schedule: Q01DX009 (ip), vehicle: saline with Tween-80) was 93 % of control; the T/C (dose: 400.0 mg/kg/injection, schedule: Q01DX009 (ip), vehicle: saline with Tween-80) was 100 % of control.

`N#Cc1ccc(OC(=O)c2ccc(N=C(N)N)cc2)cc1`: the T/C is 94 % of control under setting [7]; 96 % of control (dose: 100.0 mg/kg/injection, schedule: Q04DX003 (ip), vehicle: saline); 91 % of control under setting [8]; 93 % of control (dose: 200.0 mg/kg/injection, schedule: Q04DX003 (ip), vehicle: saline); 88 % of control (dose: 400.0 mg/kg/injection, schedule: Q04DX003 (ip), vehicle: saline).

`CC1=C(C(=O)O)CCCO1`: the T/C under setting [9] was 98 % of control, the T/C under setting [10] was 98 % of control and the T/C under setting [11] was 98 % of control.

On to `CC(O)c1cccc(NC(=O)NC2CCCCC2)c1` (stereo unspecified), for which the T/C by setting is: under setting [1], 95 % of control; under setting [3], 101 % of control; under setting [5], 95 % of control.

Regarding `O=C(CCl)N(O)c1ccccc1OCc1ccccc1`, the T/C (dose: 100.0 mg/kg/injection, schedule: Q04DX003 (ip), vehicle: carboxymethylcellulose (CMC)) is 91 % of control and the T/C (dose: 200.0 mg/kg/injection, schedule: Q04DX003 (ip), vehicle: carboxymethylcellulose (CMC)) was 102 % of control.

`O=[N+]([O-])C1CC(Cl)CCC1SSC1CCC(Cl)CC1[N+](=O)[O-]` (stereo unspecified): the T/C by setting is: (dose: 100.0 mg/kg/injection, schedule: Q04DX002 (ip), vehicle: saline with Tween-80) 95 % of control; (dose: 200.0 mg/kg/injection, schedule: Q04DX002 (ip), vehicle: saline with Tween-80) 98 % of control; (dose: 400.0 mg/kg/injection, schedule: Q04DX002 (ip), vehicle: saline with Tween-80) 92 % of control.

In the case of `O=S(c1ccccc1)c1c(Cl)c(Cl)nc(Cl)c1Cl` (stereo unspecified), the T/C (dose: 6.25 mg/kg/injection, schedule: Q01DX009 (ip), vehicle: Klucel (hydroxypropylcellulose) (HPC)) is 104 % of control; the T/C (dose: 12.5 mg/kg/injection, schedule: Q01DX009 (ip), vehicle: Klucel (hydroxypropylcellulose) (HPC)) is 106 % of control; the T/C (dose: 25.0 mg/kg/injection, schedule: Q01DX009 (ip), vehicle: Klucel (hydroxypropylcellulose) (HPC)) was 104 % of control; the T/C under setting [2] was 105 % of control; the T/C under setting [4] is 90 % of control.

In the case of `NC(CCl)=NCCOC12CC3CC(CC(C3)C1)C2`, the T/C is, setting by setting: (dose: 25.0 mg/kg/injection, schedule: Q04DX002 (ip), vehicle: saline) 94 % of control; (dose: 50.0 mg/kg/injection, schedule: Q04DX002 (ip), vehicle: saline) 112 % of control; (dose: 100.0 mg/kg/injection, schedule: Q04DX002 (ip), vehicle: saline) 96 % of control and 87 % of control.

Turning to `CCN(CC)CCCC(C)N` (stereo unspecified), the T/C (dose: 12.5 mg/kg/injection, schedule: Q04DX003 (ip), vehicle: saline) is 104 % of control; the T/C (dose: 25.0 mg/kg/injection, schedule: Q04DX003 (ip), vehicle: saline) was 100 % of control; the T/C (dose: 50.0 mg/kg/injection, schedule: Q04DX003 (ip), vehicle: saline) is 101 % of control.

Consider `O=Cc1c(Cl)c(Cl)c(C=O)c(Cl)c1Cl`, for which the T/C (dose: 50.0 mg/kg/injection, schedule: Q01DX001 (ip), vehicle: saline) was 103 % of control; the T/C under setting [9] is 103 % of control; the T/C under setting [1] was 107 % of control; the T/C under setting [2] was 102 % of control; the T/C under setting [10] was 100 % of control; the T/C under setting [3] was 115 % of control. Moreover, the T/C is, setting by setting: under setting [4], 101 % of control; under setting [11], 105 % of control; under setting [5], 103 % of control; under setting [6], 98 % of control.

With `O=C(Nc1cccc([N+](=O)[O-])c1)c1ccc(Cl)cc1Cl`, the T/C (dose: 100.0 mg/kg/injection, schedule: Q04DX003 (ip), vehicle: saline with Tween-80) is 102 % of control; the T/C (dose: 200.0 mg/kg/injection, schedule: Q04DX003 (ip), vehicle: saline with Tween-80) was 93 % of control; the T/C (dose: 400.0 mg/kg/injection, schedule: Q04DX003 (ip), vehicle: saline with Tween-80) is 98 % of control.

For `Cn1c(Cl)c(/C=N/NC(N)=S)c2ccccc21`, the T/C (dose: 50.0 mg/kg/injection, schedule: Q04DX002 (ip), vehicle: Klucel (hydroxypropylcellulose) (HPC)) was 91 % of control; the T/C (dose: 100.0 mg/kg/injection, schedule: Q04DX002 (ip), vehicle: Klucel (hydroxypropylcellulose) (HPC)) is 91 % of control; the T/C (dose: 200.0 mg/kg/injection, schedule: Q04DX002 (ip), vehicle: Klucel (hydroxypropylcellulose) (HPC)) is 87 % of control.

For `CC(C)c1cc(C(C)C)c(S(=O)(=O)/C=C/c2ccccc2)c(C(C)C)c1`, the T/C is, setting by setting: under setting [9], 104 % of control; under setting [7], 91 % of control; (dose: 100.0 mg/kg/injection, schedule: Q04DX003 (ip), vehicle: acetone) 100 % of control; under setting [10], 97 % of control; under setting [8], 93 % of control; (dose: 200.0 mg/kg/injection, schedule: Q04DX003 (ip), vehicle: acetone) 97 % of control. The T/C was 92 % of control under setting [11]; 89 % of control (dose: 400.0 mg/kg/injection, schedule: Q01DX009 (ip), vehicle: saline); 105 % of control (dose: 400.0 mg/kg/injection, schedule: Q04DX003 (ip), vehicle: acetone).

Consider `C#CCSP(=O)(O)O`, for which the T/C reads like this: (dose: 25.0 mg/kg/injection, schedule: Q01DX009 (ip), vehicle: saline with Tween-80) 103 % of control; (dose: 50.0 mg/kg/injection, schedule: Q01DX009 (ip), vehicle: saline with Tween-80) 103 % of control.

As to `CC(=O)OC(C)CC[P+](c1ccccc1)(c1ccccc1)c1ccccc1` (stereo unspecified), the T/C is, setting by setting: (dose: 75.0 mg/kg/injection, schedule: Q01DX001 (ip), vehicle: other) 104 % of control; (dose: 150.0 mg/kg/injection, schedule: Q01DX001 (ip), vehicle: other) 106 % of control.
